Measurements published in patent US9359406B2, “Vaccine for a therapeutic or a prophylactic treatment of myasthenia gravis” (CuraVac Inc., priority 2006, dated 2016).
No end group written: not given here.

How the values were obtained:
[1] = tested on: experimental autoimmune myasthenia gravis (EAMG); assay: Example 3: EAMG induced with purified Torpedo AChR in Lewis rats vaccinated with T-peptide, B-peptide or both; format: in vivo; conditions: immunized three times
Source text: To evaluate whether vaccination with T-peptide together with B-peptide with an hydrocarbon group causes a different effect on experimental autoimmune myasthenia gravis (EAMG) than either B with an hydrocarbon group and T-peptide alone and separately, Lewis rats were immunized three times with keyhole limpet hemacyanin (KLH) or T-peptide or B-peptide with an hydrocarbon group coupled to KLH either alone or in combination. EAMG was then induced with purified Torpedo AChR and disease was monitored.

[2] = tested on: pathogenic antibodies; assay: Pathogenic antibodies level in rats given B-peptide and T-peptide alone or together; format: in vivo; conditions: result in words
Experimental: As previously described, the peptide RhCA 67-16 also called herein B-peptide and the peptide RhCA 611-001 also referred herein T-peptide were tested alone on rats.

[3] = tested on: Experimental Autoimmune Myasthenia Gravis (EAMG); conditions: cited from earlier work

Substance | Average Severity [1] | EAMG Incidence (%) [1] | Mortality (%) [1] | Severity 0, number of rats [1] | Severity 1, number of rats [1] | Severity 2, number of rats [1] | Severity 4, number of rats [1] | pathogenic antibodies level [2] | incidence of the disease in vaccinated animals ([3]; peptide conjugated to KLH, controls 90%) | clinical severity scoring in animals with disease, average ([3]; peptide conjugated to KLH, positive controls 3.5) | clinical outcome after immunization ([3]; Lewis rats, result in words)
NH2-Phe-Asn-Ser-Thr-Ile-Ile-Gly-Trp-Ile-Pro-Ala-Lys-Pro-His-Ile-Asn (H-FNSTIIGWIPAKPHIN; also: Trp8 carries at least one 2,4,6-trimethoxybenzyl group) [RhCA 67-16] | 1.33 ± 0.55 | 55.56% | 22.22% | 4 | 2 | 1 | 2 | significant decrease | 25% | 1.0 | –
NH2-Tyr-Phe-Ser-Arg-Ile-Ile-Gln-Lys-Gln-Phe-Gly-His-Val-Asn-Asn-Gly-Lys (H-YFSRIIQKQFGHVNNGK) [RhCA 611-001, peptide complementary to residues 100-116 of the α-chain of the AChR] | 1.22 ± 0.55 | 55.56% | 22.22% | 4 | 3 | – | 2 | significant decrease | – | – | marked clinical improvement, lowered mortality and preservation of AChR levels on muscles
